# Measurements as given in patent US4022895A, “Substituted phenylglycylcephalosporins” (SmithKline Corporation, priority 1975, dated 1977).
# Read-outs that look alike come from different tables or passages of the source.
# Columns and labels:
# [1] = tested on: E. coli HH 33779; assay: In vitro antibacterial activity (MIC); type: cell-based; conditions: Escherichia coli, HH33779; E. coli HH 33779, in vitro; read-out: MIC
# Procedure: (§1) The compounds of this invention have antibacterial activity against Gram-positive and Gram-negative organisms. Minimum inhibitory concentrations (MIC's) ranged from 0.4 to >200 μg/ml in in vitro testing.
# [2] = tested on: E.coli SK 12140; assay: In vitro antibacterial activity (MIC); type: cell-based; conditions: Escherichia coli, SK12140
# Procedure: as §1
# [3] = tested on: Entero. aerog. ATCC 13048; assay: In vitro antibacterial activity (MIC); type: cell-based; conditions: Entero. aerog. ATCC 13048, in vitro; read-out: MIC
# Procedure: as §1
# [4] = tested on: Kleb. pneumo. SK 1200; assay: In vitro antibacterial activity (MIC); type: cell-based
# Procedure: as §1
# [5] = tested on: Kleb. pneumo. SK 4200; assay: In vitro antibacterial activity (MIC); type: cell-based; conditions: Kleb. pneumo. SK 4200, in vitro; read-out: MIC
# Procedure: as §1
# [6] = tested on: Proteus morgani 179; assay: In vitro antibacterial activity (MIC); type: cell-based; conditions: Proteus morgani 179, in vitro; read-out: MIC
# Procedure: as §1
# [7] = tested on: S.aureus HH 127; assay: In vitro antibacterial activity (MIC); type: cell-based; conditions: Staphylococcus aureus, HH127; S.aureus HH 127, in vitro; read-out: MIC
# Procedure: as §1
# [8] = tested on: S.aureus SK 23390; assay: In vitro antibacterial activity (MIC); type: cell-based; conditions: Staphylococcus aureus, SK23390; S.aureus SK 23390, in vitro; read-out: MIC
# Procedure: as §1
# [9] = tested on: S.aureus Villaluz; assay: In vitro antibacterial activity (MIC); type: cell-based; conditions: Staphylococcus aureus
# Procedure: as §1
# [10] = tested on: Sal. paratyphl ATCC 12176; assay: In vitro antibacterial activity (MIC); type: cell-based
# Procedure: as §1
# [11] = tested on: Shig. paradys HH 112; assay: In vitro antibacterial activity (MIC); type: cell-based
# Procedure: as §1
# [12] = tested on: Strep. faecalis HH 34358; assay: In vitro antibacterial activity (MIC); type: cell-based; conditions: Enterococcus faecalis, HH34358; Strep. faecalis HH 34358, in vitro
# Procedure: as §1
# [13] = tested on: E.coli 12140; assay: In vivo activity (ED50) against E.coli 12140
# [14] = tested on: Klebs.pneumo. 4200; assay: In vivo activity (ED50) against Klebs.pneumo. 4200; conditions: read-out: ED50
# [15] = E.coli SK 12140, in vitro, read-out: MIC
# [16] = Kleb. pneumo. SK 1200, in vitro, read-out: MIC
# [17] = Shig. paradys HH 112, in vitro, read-out: MIC
# [18] = Escherichia coli, 12140, po, E.coli 12140, p.o.
# [19] = Escherichia coli, 12140, sc, E.coli 12140, s.c.
Structure (SMILES),MIC [1] [µg/mL],"MIC [2, 15] [µg/mL]",MIC [3] [µg/mL],"MIC [4, 16] [µg/mL]",MIC [5] [µg/mL],MIC [6] [µg/mL],MIC [7] [µg/mL],MIC [8] [µg/mL],MIC [9] [µg/mL],MIC [10] [µg/mL],"MIC [11, 17] [µg/mL]",MIC [12] [µg/mL],"ED50 [13, 18] [mg/kg]","ED50 [13, 19] [mg/kg]","ED50 ([14]; po, Klebs.pneumo. 4200, p.o.) [mg/kg]","ED50 ([14]; sc, Klebs.pneumo. 4200, s.c.) [mg/kg]",MIC [11] [µg/mL],MIC [2] [µg/mL],MIC [4] [µg/mL]
"Cn1nnnc1SCC1=C(C(=O)O)N2C(=O)C(NC(=O)[C@H](N)c3ccc(OCC(=O)O)cc3)C2SC1 (stereo partly drawn) [Compound No. 42526, 7-[D-α-Amino-α-(4'-carboxymethoxyphenyl)acetamido]-3-(1-methyl-1,2,3,4-tetrazol-5-ylthiomethyl)-3-cephem-4-carboxylic acid]",12.5,6.3,12.5,3.1,3.1,100,25,25,200,6.3,6.3,> 200,> 50,9.5,33,5.4,,,
"COC(=O)COc1ccc([C@@H](N)C(=O)NC2C(=O)N3C(C(=O)O)=C(CSc4c[nH]nn4)CSC23)cc1 (stereo partly drawn) [Compound No. 19736, 7-[D-α-Amino-α-(4'-carbomethoxymethoxyphenyl)acetamido]-3-(1,2,3-triazol-4-ylthiomethyl)-3-cephem-4-carboxylic acid]",100,50,> 200,50,50,> 200,12.5,12.5,200,25,25,100,25,34,,,,,
"Cn1nnnc1SCC1=C(C(=O)O)N2C(=O)C(NC(=O)[C@H](N)c3ccc(NCC(=O)O)cc3)C2SC1 (stereo partly drawn) [Compound No. 76746, 7-[D-α-Amino-α-(4'-carboxymethylaminophenyl)acetamido]-3-(1-methyl-1,2,3,4-tetrazol-5-ylthiomethyl)-3-cephem-4-carboxylic acid]",1.6,1.6,1.6,1.6,0.8,6.3,6.3,6.3,50,3.1,3.1,100,,,,,,,
"COC(=O)CNc1ccc([C@@H](N)C(=O)NC2C(=O)N3C(C(=O)O)=C(CSc4nnc(C)s4)CSC23)cc1 (stereo partly drawn) [Compound No. 96146, 7-[D-α-Amino-α-(4'-carbomethoxymethylaminophenyl)-acetamido]-3-(5-methyl-1,3,4-thiadiazol-2-ylthiomethyl)-3-cephem-4-carboxylic acid]",100,50,100,50,50,> 200,6.3,6.3,50,25,25,25,16,4.7,17,2.9,,,
"NC(=O)COc1ccc([C@@H](N)C(=O)NC2C(=O)N3C(C(=O)O)=C(CSc4c[nH]nn4)CSC23)cc1 (stereo partly drawn) [Compound No. 91726, 7-[D-α-Amino-α -(4'-carbamylmethoxyphenyl)acetamido]-3-(1,2,3-triazol-4-ylthiomethyl)-3-cephem-4-carboxylic acid]",25,50,50,12.5,12.5,,6.3,6.3,50,6.3,6.3,200,25,14,13.6,12.5,,,
"COC(=O)COc1ccc([C@@H](N)C(=O)NC2C(=O)N3C(C(=O)O)=C(CSc4nnnn4C)CSC23)cc1 (stereo partly drawn) [Compound No. 26436, 7-[D-α-Amino-α-(4'-carbomethoxymethoxyphenyl)acetamido]-3-(1-methyl-1,2,3,4-tetrazol-5-ylthiomethyl)-3-cephem-4-carboxylic acid]",12.5,12.5,25,6.3,6.3,50,6.3,6.3,25,3.1,,50,9.6,1.2,5.5,1.5,6.5,,
Cc1nnc(SCC2=C(C(=O)O)N3C(=O)C(NC(=O)C(N)c4ccc(OCC(=O)O)cc4)C3SC2)s1 (stereo not drawn) [*59216],6.3 to 25,,12.5 to 50,,1.6 to 6.3,,6.3 to 25,100 to 200,100 to 200,3.1 to 12.5,1.6 to 12.5,50 to 200,,6.2,29,,,3.1 to 12.5,3.1 to 12.5
